Experiments:
THZ1 [1] = compound: T1, CN(C)C/C=C/C(=O)Nc1ccc(C(=O)Nc2cccc(Nc3ncc(Cl)c(-c4c[nH]c5ccccc45)n3)c2)cc1 [THZ1]; test: increase in dead-cell fraction, 72 h; higher = more death;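 note: breast cancer cell lines in 384-well plates, stained with Hoechst plus LIVE/DEAD far red dye and imaged, cells above an LDR intensity threshold counted dead, Hoechst-negative corpses included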
LEE011/Ribociclib = compound: CN(C)C(=O)c1cc2cnc(Nc3ccc(N4CCNCC4)cn3)nc2n1C1CCCC1 [LEE011/Ribociclib]; test: as above
BSJ-03-123 = compound: CC(=O)c1c(C)c2cnc(Nc3ccc(N4CCN(CCOCCOCCOCCNC(=O)COc5cccc6c5C(=O)N(C5CCC(=O)NC5=O)C6=O)CC4)cn3)nc2n(C2CCCC2)c1=O [BSJ-03-123]; test: as above
Flavopiridol [2] = compound: T2, CN1CC[C@H](c2c(O)cc(O)c3c(=O)cc(-c4ccccc4Cl)oc23)[C@H](O)C1 [Flavopiridol]; test: as above
[3] = compound: CCc1cnn2c(NCc3ccc[n+]([O-])c3)cc(N3CCCC[C@H]3CCO)nc12; test: as above
Neratinib/HKI272 = compound: CCOc1cc2ncc(C#N)c(Nc3ccc(OCc4ccccn4)c(Cl)c3)c2cc1NC(=O)/C=C/CN(C)C [Neratinib/HKI272]; test: as above
[4] = compound: CCN1CCN(Cc2ccc(Nc3ncc(F)c(-c4cc(F)c5nc(C)n(C(C)C)c5c4)n3)nc2)CC1; test: as above
[5] = compound: CC(=O)c1c(C)c2cnc(Nc3ccc(N4CCNCC4)cn3)nc2n(C2CCCC2)c1=O; test: as above
THZ1 [6] = compound: T1, THZ1; test: GR value, 72 h; higher = faster growth (1 = untreated, <0 = killing);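 note: breast cancer and non-malignant breast epithelial lines, nine half-log doses, viable cells counted by Hoechst and LIVE/DEAD dye imaging versus time-zero plates and DMSO controls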
Flavopiridol [7] = compound: T2, Flavopiridol; test: as above
THZ531 = compound: CN(C)C/C=C/C(=O)Nc1ccc(C(=O)N2CCC[C@@H](Nc3ncc(Cl)c(-c4c[nH]c5ccccc45)n3)C2)cc1 [THZ531]; test: as above
[8] = compound: CC(=O)c1c(C)c2cnc(Nc3ccc(N4CCNCC4)cn3)nc2n(C2CCCC2)c1=O; test: as above

SUM159
increase in dead-cell fraction (THZ1 [1]; 0.0001 µM): -0.005 | increase in dead-cell fraction (THZ1 [1]; 0.0003162 µM): -0.0055 | increase in dead-cell fraction (THZ1 [1]; 0.001 µM): -0.0004 | increase in dead-cell fraction (THZ1 [1]; 0.003162 µM): -0.0006 | increase in dead-cell fraction (THZ1 [1]; 0.01 µM): 0.001 | increase in dead-cell fraction (THZ1 [1]; 0.03162 µM): 0.0024 | increase in dead-cell fraction (THZ1 [1]; 0.1 µM): 0.0084 | increase in dead-cell fraction (THZ1 [1]; 0.3162 µM): 0.0412 | increase in dead-cell fraction (THZ1 [1]; 1 µM): 0.212 | increase in dead-cell fraction (LEE011/Ribociclib; 0.001 µM): -0.0013 | increase in dead-cell fraction (LEE011/Ribociclib; 0.003162 µM): 0.0006 | increase in dead-cell fraction (LEE011/Ribociclib; 0.01 µM): 0.0082 | increase in dead-cell fraction (LEE011/Ribociclib; 0.03162 µM): 0.013 | increase in dead-cell fraction (LEE011/Ribociclib; 0.1 µM): 0.0057 | increase in dead-cell fraction (LEE011/Ribociclib; 0.3162 µM): 0.0121 | increase in dead-cell fraction (LEE011/Ribociclib; 1 µM): 0.0033 | increase in dead-cell fraction (LEE011/Ribociclib; 3.162 µM): 0.0075 | increase in dead-cell fraction (LEE011/Ribociclib; 10 µM): 0.0212 | increase in dead-cell fraction (BSJ-03-123; 0.001 µM): -0.0023 | increase in dead-cell fraction (BSJ-03-123; 0.003162 µM): 0.0027 | increase in dead-cell fraction (BSJ-03-123; 0.01 µM): -0.003 | increase in dead-cell fraction (BSJ-03-123; 0.03162 µM): 0.0063 | increase in dead-cell fraction (BSJ-03-123; 0.1 µM): 0.0055 | increase in dead-cell fraction (BSJ-03-123; 0.3162 µM): 0.0076 | increase in dead-cell fraction (BSJ-03-123; 1 µM): 0.0134 | increase in dead-cell fraction (BSJ-03-123; 3.162 µM): 0.0322 | increase in dead-cell fraction (BSJ-03-123; 10 µM): 0.28 | increase in dead-cell fraction (Flavopiridol [2]; 0.0001 µM): -0.0034 | increase in dead-cell fraction (Flavopiridol [2]; 0.0003162 µM): -0.0008 | increase in dead-cell fraction (Flavopiridol [2]; 0.001 µM): -0.0034 | increase in dead-cell fraction (Flavopiridol [2]; 0.003162 µM): -0.0003 | increase in dead-cell fraction (Flavopiridol [2]; 0.01 µM): -0.0024 | increase in dead-cell fraction (Flavopiridol [2]; 0.03162 µM): 0.012 | increase in dead-cell fraction (Flavopiridol [2]; 0.1 µM): 0.0436 | increase in dead-cell fraction (Flavopiridol [2]; 0.3162 µM): 0.205 | increase in dead-cell fraction (Flavopiridol [2]; 1 µM): 0.208 | increase in dead-cell fraction ([3]; 0.0001 µM): -0.0009 | increase in dead-cell fraction ([3]; 0.0003162 µM): -0.0008 | increase in dead-cell fraction ([3]; 0.001 µM): -0.0012 | increase in dead-cell fraction ([3]; 0.003162 µM): 0.0013 | increase in dead-cell fraction ([3]; 0.01 µM): 0.0076 | increase in dead-cell fraction ([3]; 0.03162 µM): 0.299 | increase in dead-cell fraction ([3]; 0.1 µM): 0.226 | increase in dead-cell fraction ([3]; 0.3162 µM): 0.238 | increase in dead-cell fraction ([3]; 1 µM): 0.246 | increase in dead-cell fraction (Neratinib/HKI272; 0.0003162 µM): -0.005 | increase in dead-cell fraction (Neratinib/HKI272; 0.001 µM): -0.0025 | increase in dead-cell fraction (Neratinib/HKI272; 0.003162 µM): -0.0041 | increase in dead-cell fraction (Neratinib/HKI272; 0.01 µM): -0.0075 | increase in dead-cell fraction (Neratinib/HKI272; 0.03162 µM): -0.0087 | increase in dead-cell fraction (Neratinib/HKI272; 0.1 µM): -0.0118 | increase in dead-cell fraction (Neratinib/HKI272; 0.3162 µM): -0.0133 | increase in dead-cell fraction (Neratinib/HKI272; 1 µM): -0.01 | increase in dead-cell fraction (Neratinib/HKI272; 3.162 µM): -0.004 | increase in dead-cell fraction ([4]; 0.001 µM): -0.0002 | increase in dead-cell fraction ([4]; 0.003162 µM): -0.0043 | increase in dead-cell fraction ([4]; 0.01 µM): -0.0052 | increase in dead-cell fraction ([4]; 0.03162 µM): -0.0042 | increase in dead-cell fraction ([4]; 0.1 µM): 0.0006 | increase in dead-cell fraction ([4]; 0.3162 µM): 0.0029 | increase in dead-cell fraction ([4]; 1 µM): 0.0118 | increase in dead-cell fraction ([4]; 3.162 µM): 0.0126 | increase in dead-cell fraction ([4]; 10 µM): 0.447 | increase in dead-cell fraction ([5]; 0.0003162 µM): 0 | increase in dead-cell fraction ([5]; 0.001 µM): 0.0001 | increase in dead-cell fraction ([5]; 0.003162 µM): -0.0023 | increase in dead-cell fraction ([5]; 0.01 µM): -0.0027 | increase in dead-cell fraction ([5]; 0.03162 µM): -0.009 | increase in dead-cell fraction ([5]; 0.1 µM): -0.0094 | increase in dead-cell fraction ([5]; 0.3162 µM): -0.0078 | increase in dead-cell fraction ([5]; 1 µM): -0.0049 | increase in dead-cell fraction ([5]; 3.162 µM): -0.0004 | GR value (THZ1 [6]; 0.0001 µM): 1.01 GR | GR value (THZ1 [6]; 0.0003162 µM): 0.974 GR | GR value (THZ1 [6]; 0.001 µM): 0.974 GR | GR value (THZ1 [6]; 0.003162 µM): 0.963 GR | GR value (THZ1 [6]; 0.01 µM): 0.99 GR | GR value (THZ1 [6]; 0.03162 µM): 0.955 GR | GR value (THZ1 [6]; 0.1 µM): 0.809 GR | GR value (THZ1 [6]; 0.3162 µM): 0.646 GR | GR value (THZ1 [6]; 1 µM): -0.112 GR | GR value (Flavopiridol [7]; 0.0001 µM): 1.01 GR | GR value (Flavopiridol [7]; 0.0003162 µM): 0.998 GR | GR value (Flavopiridol [7]; 0.001 µM): 0.973 GR | GR value (Flavopiridol [7]; 0.003162 µM): 0.925 GR | GR value (Flavopiridol [7]; 0.01 µM): 0.941 GR | GR value (Flavopiridol [7]; 0.03162 µM): 0.885 GR | GR value (Flavopiridol [7]; 0.1 µM): 0.631 GR | GR value (Flavopiridol [7]; 0.3162 µM): 0.132 GR | GR value (Flavopiridol [7]; 1 µM): -0.0516 GR | GR value (THZ531; 0.0001 µM): 0.957 GR | GR value (THZ531; 0.0003162 µM): 0.95 GR | GR value (THZ531; 0.001 µM): 0.98 GR | GR value (THZ531; 0.003162 µM): 0.972 GR | GR value (THZ531; 0.01 µM): 0.974 GR | GR value (THZ531; 0.03162 µM): 1.03 GR | GR value (THZ531; 0.1 µM): 0.979 GR | GR value (THZ531; 0.3162 µM): 0.965 GR | GR value (THZ531; 1 µM): 0.61 GR | GR value ([8]; 0.0003162 µM): 1 GR | GR value ([8]; 0.001 µM): 0.988 GR | GR value ([8]; 0.003162 µM): 0.987 GR | GR value ([8]; 0.01 µM): 0.947 GR | GR value ([8]; 0.03162 µM): 0.881 GR | GR value ([8]; 0.1 µM): 0.755 GR | GR value ([8]; 0.3162 µM): 0.64 GR | GR value ([8]; 1 µM): 0.574 GR | GR value ([8]; 3.162 µM): 0.468 GR
